Results from US20240368173A1, “TRICYCLIC GPR65 MODULATORS” (PATHIOS THERAPEUTICS LIMITED, priority 2021, published 2024).
pIC50: −log10 of the molar value.

Molecular target: human recombinant GPR65 (Homo sapiens, UniProt Q8IYL9)
Assay: Human GPR65 cAMP HTRF antagonist assay
Format: cell-based
Conditions: not given
Procedure, shortened: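 Antagonism measured as suppression of the cAMP rise when pH is dropped to 7.2 (control wells pH 7.9) in 1321N1 cells stably carrying human GPR65. Cells in KRH with 1 mM IBMX and 200 μM EDTA saw compound 30 min, then acid stimulation 30 min; HTRF cAMP detection, normalised, 4-parameter logistic IC50.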

Chain of human recombinant GPR65 (Q8IYL9 whole entry): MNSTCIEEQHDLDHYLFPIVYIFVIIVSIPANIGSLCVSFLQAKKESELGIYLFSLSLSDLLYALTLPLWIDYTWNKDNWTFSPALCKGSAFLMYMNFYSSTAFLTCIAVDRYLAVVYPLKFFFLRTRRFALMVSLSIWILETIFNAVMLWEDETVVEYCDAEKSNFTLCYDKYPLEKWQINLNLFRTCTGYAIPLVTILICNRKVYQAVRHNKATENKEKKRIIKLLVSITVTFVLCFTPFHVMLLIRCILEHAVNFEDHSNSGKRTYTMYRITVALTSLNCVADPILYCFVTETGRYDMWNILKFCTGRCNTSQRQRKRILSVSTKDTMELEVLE

Row | Compound | pIC50
1 | COc1ccc(-c2cc(F)c(NC(=O)N3[C@H]4CC[C@@H]3c3c[nH]c(=O)cc3C4)cc2Cl)cn1 [Compound 184, (6S,9R)-N-(5-Chloro-2-fluoro-4-(6-methoxypyridin-3-yl)phenyl)-3-oxo-3,5,6,7,8,9-hexahydro-2H-6,9-epiminocyclohepta[c]pyridine-10-carboxamide] | > 6.30
2 | O=C(Nc1cc(Cl)c(-c2ccc3cncn3c2)cc1F)N1[C@H]2CC[C@@H]1c1n[nH]c(=O)cc1C2 [Compound 197, (6S,9R)-N-(5-Chloro-2-fluoro-4-(imidazo[1,5-a]pyridin-6-yl)phenyl)-3-oxo-3,5,6,7,8,9-hexahydro-2H-6,9-epiminocyclohepta[c]pyridazine-10-carboxamide] | > 6.30
3 | O=C(Nc1ccc(Br)c(C(F)(F)F)c1)N1C2CCC1c1n[nH]c(=O)cc1C2 (racemic) [Compound 10, (±)-N-(4-Bromo-3-(trifluoromethyl)phenyl)-3-oxo-3,5,6,7,8,9-hexahydro-2H-6,9-epiminocyclohepta[c]pyridazine-10-carboxamide] | > 6.30
4 | O=C(Nc1cc(Cl)c(-c2ccc(OC3CCOC3)nc2)cc1F)N1[C@H]2CC[C@@H]1c1n[nH]c(=O)cc1C2 (stereo partly drawn) [Compound 342, (6S,9R)-N-(5-Chloro-2-fluoro-4-(6-((tetrahydrofuran-3-yl)oxy)pyridin-3-yl)phenyl)-3-oxo-3,5,6,7,8,9-hexahydro-2H-6,9-epiminocyclohepta[c]pyridazine-10-carboxamide] | > 6.30
5 | Cc1nc2cc(-c3cc(F)c(NC(=O)N4[C@H]5CC[C@@H]4c4n[nH]c(=O)cc4C5)cc3Cl)ccc2o1 [Compound 234, (6S,9R)-N-(5-Chloro-2-fluoro-4-(2-methylbenzo[d]oxazol-5-yl)phenyl)-3-oxo-3,5,6,7,8,9-hexahydro-2H-6,9-epiminocyclohepta[c]pyridazine-10-carboxamide] | > 6.30
6 | Cc1nnc(-c2cc(F)c(NC(=O)N3[C@H]4CC[C@@H]3c3ccnc(F)c3C4)cc2Cl)s1 [Compound 64, (5R,8S)-N-(5-Chloro-2-fluoro-4-(5-methyl-1,3,4-thiadiazol-2-yl)phenyl)-1-fluoro-6,7,8,9-tetrahydro-5H-5,8-epiminocyclohepta[c]pyridine-10-carboxamide] | > 6.30
7 | O=C(Nc1cc(Cl)c(-c2ccc(N3CCC3)nc2)cc1F)N1[C@H]2CC[C@@H]1c1n[nH]c(=O)cc1C2 [Compound 341, (6S,9R)-N-(4-(6-(Azetidin-1-yl)pyridin-3-yl)-5-chloro-2-fluorophenyl)-3-oxo-3,5,6,7,8,9-hexahydro-2H-6,9-epiminocyclohepta[c]pyridazine-10-carboxamide] | > 6.30
8 | O=C(Nc1cc(Cl)c(-c2ccc3nonc3c2)cc1F)N1C2CCC1C(F)(F)c1c2ccnc1F (racemic) [Compound 289, (±)-N-(4-(Benzo[c][1,2,5]oxadiazol-5-yl)-5-chloro-2-fluorophenyl)-1,9,9-trifluoro-6,7,8,9-tetrahydro-5H-5,8-epiminocyclohepta[c]pyridine-10-carboxamide] | > 6.30
9 | Cc1nc2cc(-c3cc(F)c(NC(=O)N4[C@H]5CC[C@@H]4c4ccnc(F)c4C5)cc3Cl)ccc2o1 [Compound 233, (5R,8S)-N-(5-Chloro-2-fluoro-4-(2-methylbenzo[d]oxazol-5-yl)phenyl)-1-fluoro-6,7,8,9-tetrahydro-5H-5,8-epiminocyclohepta[c]pyridine-10-carboxamide] | > 6.30
10 | O=C(Nc1cc(Cl)c(-c2ccc(OCC3CC3(F)F)nc2)cc1F)N1[C@H]2CC[C@@H]1c1n[nH]c(=O)cc1C2 (stereo partly drawn) [Compound 338, (6S,9R)-N-(5-Chloro-4-(6-((2,2-difluorocyclopropyl)methoxy)pyridin-3-yl)-2-fluorophenyl)-3-oxo-3,5,6,7,8,9-hexahydro-2H-6,9-epiminocyclohepta[c]pyridazine-10-carboxamide] | > 6.30
11 | O=C(Nc1cc(Cl)c(COc2ccc(F)nc2)cc1F)N1[C@H]2CC[C@@H]1c1n[nH]c(=O)cc1C2 [Compound 293, (6S,9R)-N-(5-Chloro-2-fluoro-4-(((6-fluoropyridin-3-yl)oxy)methyl)phenyl)-3-oxo-3,5,6,7,8,9-hexahydro-2H-6,9-epiminocyclohepta[c]pyridazine-10-carboxamide] | > 6.30
12 | O=C(Nc1cc(Cl)c(-c2ccc3nonc3c2F)cc1F)N1[C@H]2CC[C@@H]1c1n[nH]c(=O)cc1C2 [Compound 327, (6S,9R)-N-(5-Chloro-2-fluoro-4-(4-fluorobenzo[c][1,2,5]oxadiazol-5-yl)phenyl)-3-oxo-3,5,6,7,8,9-hexahydro-2H-6,9-epiminocyclohepta[c]pyridazine-10-carboxamide] | > 6.30
13 | O=C(Nc1cc(Cl)c(-c2ccc(OCC3CC3)nc2)cc1F)N1[C@H]2CC[C@@H]1c1c[nH]c(=O)cc1C2 [Compound 334, (6S,9R)-N-(5-Chloro-4-(6-(cyclopropylmethoxy)pyridin-3-yl)-2-fluorophenyl)-3-oxo-3,5,6,7,8,9-hexahydro-2H-6,9-epiminocyclohepta[c]pyridine-10-carboxamide] | > 6.30
14 | COc1ncc(-c2cc(F)c(NC(=O)N3[C@H]4CC[C@@H]3c3c[nH]c(=O)cc3C4)cc2Cl)cc1F [Compound 217, (6S,9R)-N-(5-Chloro-2-fluoro-4-(5-fluoro-6-methoxypyridin-3-yl)phenyl)-3-oxo-3,5,6,7,8,9-hexahydro-2H-6,9-epiminocyclohepta[c]pyridine-10-carboxamide] | > 6.30
15 | O=C(Nc1cc(Cl)c(-c2cc(F)c3nonc3c2)cc1F)N1[C@H]2CC[C@@H]1c1n[nH]c(=O)cc1C2 [Compound 323, (6S,9R)-N-(5-Chloro-2-fluoro-4-(7-fluorobenzo[c][1,2,5]oxadiazol-5-yl)phenyl)-3-oxo-3,5,6,7,8,9-hexahydro-2H-6,9-epiminocyclohepta[c]pyridazine-10-carboxamide] | > 6.30
16 | COc1ncc(-c2cc(F)c(NC(=O)N3[C@H]4CC[C@@H]3c3n[nH]c(=O)cc3C4)cc2Cl)cc1F [Compound 207, (6S,9R)-N-(5-Chloro-2-fluoro-4-(5-fluoro-6-methoxypyridin-3-yl)phenyl)-3-oxo-3,5,6,7,8,9-hexahydro-2H-6,9-epiminocyclohepta[c]pyridazine-10-carboxamide] | > 6.30
17 | O=C(Nc1cc(Cl)c(-c2cncc(CF)c2)cc1F)N1[C@H]2CC[C@@H]1c1n[nH]c(=O)cc1C2 [Compound 311, (6S,9R)—N-(5-Chloro-2-fluoro-4-(5-(fluoromethyl)pyridin-3-yl)phenyl)-3-oxo-3,5,6,7,8,9-hexahydro-2H-6,9-epiminocyclohepta[c]pyridazine-10-carboxamide] | > 6.30
18 | O=C(Nc1cc(Cl)c(-c2ccc3conc3c2)cc1F)N1[C@H]2CC[C@@H]1c1n[nH]c(=O)cc1C2 [Compound 198, (6S,9R)-N-(4-(Benzo[c]isoxazol-6-yl)-5-chloro-2-fluorophenyl)-3-oxo-3,5,6,7,8,9-hexahydro-2H-6,9-epiminocyclohepta[c]pyridazine-10-carboxamide] | > 6.30
19 | O=C(Nc1cc(Cl)c(C(F)(F)F)cc1F)N1C2CCC1c1n[nH]c(=O)cc1C2 (racemic) [Compound 1, (±)—N-(5-chloro-2-fluoro-4-(trifluoromethyl)phenyl)-3-oxo-3,5,6,7,8,9-hexahydro-2H-6,9-epiminocyclohepta[c]pyridazine-10-carboxamide] | > 6.30
20 | O=C(Nc1cc(Br)c(Cl)cc1F)N1[C@H]2CC[C@@H]1c1c[nH]c(=O)nc1C2 [Compound 26, (5R,8S)-N-(5-Bromo-4-chloro-2-fluorophenyl)-2-oxo-3,5,6,7,8,9-hexahydro-2H-5,8-epiminocyclohepta[d]pyrimidine-10-carboxamide] | > 6.30
21 | O=C(Nc1cc(F)c(-c2ccc(F)nc2)cc1F)N1[C@H]2CC[C@@H]1c1c[nH]c(=O)cc1C2 [Compound 243, (6S,9R)-N-(2,5-Difluoro-4-(6-fluoropyridin-3-yl)phenyl)-3-oxo-3,5,6,7,8,9-hexahydro-2H-6,9-epiminocyclohepta[c]pyridine-10-carboxamide] | > 6.30
22 | COc1cncc(-c2cc(F)c(NC(=O)N3[C@H]4CC[C@@H]3c3n[nH]c(=O)cc3C4)cc2Cl)c1 [Compound 114, (6S,9R)—N-(5-Chloro-2-fluoro-4-(5-methoxypyridin-3-yl)phenyl)-3-oxo-3,5,6,7,8,9-hexahydro-2H-6,9-epiminocyclohepta[c]pyridazine-10-carboxamide] | > 6.30
23 | O=C(Nc1ccc(Cl)c(Br)c1)N1C2CCC1c1n[nH]c(=O)cc1C2 (racemic) [Compound 5, (±)-N-(3-Bromo-4-chlorophenyl)-3-oxo-3,5,6,7,8,9-hexahydro-2H-6,9-epiminocyclohepta[c]pyridazine-10-carboxamide] | > 6.30

Same assay, conditions: 1321N1-hrGPR65 cells, cAMP HTRF, assay pH 7.2; read-out: hGPR65 IC50 (Activity of selected compounds according to the invention)

Row | Compound | pIC50
24 | O=C(Nc1cc(Cl)c(Br)cc1F)N1[C@@H]2CC[C@H]1c1n[nH]c(=O)cc1C2 [Compound 33, (6R,9S)-N-(4-Bromo-5-chloro-2-fluorophenyl)-3-oxo-3,5,6,7,8,9-hexahydro-2H-6,9-epiminocyclohepta[c]pyridazine-10-carboxamide] | < 5.30
25 | O=C(Nc1cc(Cl)c(-c2ccc3n[nH]nc3c2)cc1F)N1[C@H]2CC[C@@H]1c1n[nH]c(=O)cc1C2 [Compound 140, (6S,9R)-N-(4-(2H-Benzo[d][1,2,3]triazol-5-yl)-5-chloro-2-fluorophenyl)-3-oxo-3,5,6,7,8,9-hexahydro-2H-6,9-epiminocyclohepta[c]pyridazine-10-carboxamide] | 5.30 to 6.30
26 | O=C(Nc1ccc(OC2CCC2)c(Cl)c1)N1C2CCC1c1n[nH]c(=O)cc1C2 (racemic) [Compound 14, (±)-N-(3-Chloro-4-cyclobutoxyphenyl)-3-oxo-3,5,6,7,8,9-hexahydro-2H-6,9-epiminocyclohepta[c]pyridazine-10-carboxamide] | 5.30 to 6.30
27 | O=C(Nc1cc(Cl)c(-c2cncn2C2CCCCO2)cc1F)N1[C@H]2CC[C@@H]1c1n[nH]c(=O)cc1C2 (stereo partly drawn) [Compound 143, (6S,9R)-N-(5-Chloro-2-fluoro-4-(1-(tetrahydro-2H-pyran-2-yl)-1H-imidazol-5-yl)phenyl)-3-oxo-3,5,6,7,8,9-hexahydro-2H-6,9-epiminocyclohepta[c]pyridazine-10-carboxamide] | 5.30 to 6.30
